Measurements as given in patent publication US8952024B2, “Herbicidal pyrimidone derivatives” (E I du Pont de Nemours and Company, priority 2009, dated 2015).

Columns and labels:
Assay in all cases: Test B pre-/postemergence plant response
Assay type in all cases: in vivo
[1] = system: pigweed (Amaranthus retroflexus)
How it was run: (§1)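 Test compounds, formulated in a non-phytotoxic solvent mixture with surfactant, are applied to the soil surface (loam and sand blend) right after seeding, or sprayed over plants at the 1- to 4-leaf stage grown in peat moss/vermiculite medium. After 13 to 15 days under glasshouse conditions, each species is scored visually from 0 (no effect) to 100 (complete control) against controls.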

[2] = system: blackgrass (Alopecurus myosuroides)
How it was run: as §1

[3] = system: johnsongrass (Sorghum halepense)
How it was run: as §1

soybean (Glycine max) = system: soybean (Glycine max)
How it was run: as §1

corn (Zea mays) = system: corn (Zea mays)
How it was run: as §1

[4] = system: goosegrass (Eleusine indica)
How it was run: as §1

[5] = system: downy bromegrass (Bromus tectorum)
How it was run: as §1

[6] = system: velvetleaf (Abutilon theophrasti)
How it was run: as §1

[7] = system: yellow nutsedge (Cyperus esculentus)
How it was run: as §1

[8] = system: Surinam grass (Brachiaria decumbens)
How it was run: as §1

wild oat (Avena fatua) = system: wild oat (Avena fatua)
How it was run: as §1

[9] = system: lambsquarters (Chenopodium album)
How it was run: as §1

[10] = system: Italian ryegrass (Lolium multiflorum)
How it was run: as §1

kochia (Kochia scoparia) = details: Preemergence
How it was run: as §1

[11] = system: wheat (Triticum aestivum)
How it was run: as §1

[12] = system: woolly cupgrass (Eriochloa villosa)
How it was run: as §1

[13] = system: large crabgrass (Digitaria sanguinalis)
How it was run: as §1

[14] = system: ragweed (common ragweed, Ambrosia elatior)
How it was run: as §1

[15] = 250 g ai/ha, Preemergence, 0 to 100 scale
[16] = Postemergence, 31 g ai/ha, scale 0 to 100 (0 no effect, 100 complete control)
[17] = Postemergence, 62 g ai/ha, scale 0 (no effect) to 100 (complete control), 13 to 15 days
[18] = Postemergence, 125 g ai/ha, visual rating after 13 to 15 days, scale 0 (no effect) to 100 (complete control)
[19] = Postemergence, 250 g ai/ha, scale 0 to 100
[20] = Preemergence, 31 g ai/ha, scale 0 to 100 (0 no effect, 100 complete control)
[21] = Preemergence, 62 g ai/ha, scale 0 to 100, 0 no effect, 100 complete control
[22] = Preemergence, 125 g ai/ha, 0 to 100 scale

O=C1CCCC([O-])=C1C(=O)c1cnc(-c2ccccc2)n(-c2ccccc2)c1=O.[K+] [Compound 14]
60: Surinam Grass plant response rating [8, 22]
45: Plant response rating, Johnsongrass [3, 16] | Plant response rating, Corn (corn (Zea mays); [18])
95: Plant response rating, Johnsongrass [3, 15]
30: Plant response rating, Johnsongrass [3, 21] | Plant response rating, Bromegrass, Downy [5, 17] | Plant response rating, Nutsedge, Yellow [7, 17] | Plant response rating, Nutsedge, Yellow [7, 18] | Plant response rating, Nutsedge, Yellow [7, 21] | Plant response rating, Oat, Wild (wild oat (Avena fatua); [16])
100: Plant response rating, Pigweed [1, 15] | Pigweed plant response rating [1, 22] | Plant response rating, Goosegrass [4, 15] | Plant response rating, Velvetleaf [6, 15] | Velvetleaf plant response rating [6, 19] | Velvetleaf plant response rating [6, 22] | Plant response rating, Lambsquarters [9, 15] | Plant response rating, Lambsquarters [9, 20] | Plant response rating, Lambsquarters [9, 21] | Lambsquarters plant response rating [9, 22] | Plant response rating, Kochia (kochia (Kochia scoparia); 250 g ai/ha, 0 to 100 scale) | Plant response rating, Kochia (kochia (Kochia scoparia); 62 g ai/ha, scale 0 to 100, 0 no effect, 100 complete control) | Kochia plant response rating (kochia (Kochia scoparia); 125 g ai/ha, 0 to 100 scale) | Plant response rating, Crabgrass, Large [13, 15] | Crabgrass, Large plant response rating [13, 22]
50: Soybean plant response rating (soybean (Glycine max); [22]) | Plant response rating, Bromegrass, Downy [5, 18] | Nutsedge, Yellow plant response rating [7, 19] | Plant response rating, Surinam Grass [8, 17] | Plant response rating, Surinam Grass [8, 18] | Plant response rating, Oat, Wild (wild oat (Avena fatua); [18]) | Oat, Wild plant response rating (wild oat (Avena fatua); [19]) | Ryegrass, Italian plant response rating [10, 19] | Plant response rating, Cupgrass, Woolly [12, 16] | Cupgrass, Woolly plant response rating [12, 22] | Plant response rating, Crabgrass, Large [13, 16] | Plant response rating, Crabgrass, Large [13, 21]
0: Plant response rating, Blackgrass [2, 15] | Plant response rating, Blackgrass [2, 16] | Plant response rating, Blackgrass [2, 17] | Plant response rating, Blackgrass [2, 20] | Plant response rating, Blackgrass [2, 21] | Blackgrass plant response rating [2, 22] | Plant response rating, Corn (corn (Zea mays); [20]) | Plant response rating, Corn (corn (Zea mays); [21]) | Corn plant response rating (corn (Zea mays); [22]) | Plant response rating, Bromegrass, Downy [5, 15] | Plant response rating, Bromegrass, Downy [5, 20] | Plant response rating, Bromegrass, Downy [5, 21] | Bromegrass, Downy plant response rating [5, 22] | Plant response rating, Nutsedge, Yellow [7, 20] | Plant response rating, Surinam Grass [8, 20] | Plant response rating, Oat, Wild (wild oat (Avena fatua); [15]) | Plant response rating, Oat, Wild (wild oat (Avena fatua); [20]) | Plant response rating, Oat, Wild (wild oat (Avena fatua); [21]) | Oat, Wild plant response rating (wild oat (Avena fatua); [22]) | Plant response rating, Ryegrass, Italian [10, 15] | Plant response rating, Ryegrass, Italian [10, 16] | Plant response rating, Ryegrass, Italian [10, 20] | Plant response rating, Ryegrass, Italian [10, 21] | Ryegrass, Italian plant response rating [10, 22] | Plant response rating, Wheat [11, 15] | Plant response rating, Wheat [11, 16] | Plant response rating, Wheat [11, 17] | Plant response rating, Wheat [11, 18] | Plant response rating, Wheat [11, 20] | Plant response rating, Wheat [11, 21] | Wheat plant response rating [11, 22] | Plant response rating, Cupgrass, Woolly [12, 20]
40: Plant response rating, Corn (corn (Zea mays); [17]) | Nutsedge, Yellow plant response rating [7, 22] | Plant response rating, Surinam Grass [8, 16] | Plant response rating, Oat, Wild (wild oat (Avena fatua); [17])
80: Plant response rating, Pigweed [1, 16] | Plant response rating, Pigweed [1, 17] | Plant response rating, Pigweed [1, 18] | Plant response rating, Johnsongrass [3, 17] | Plant response rating, Johnsongrass [3, 18] | Johnsongrass plant response rating [3, 19] | Johnsongrass plant response rating [3, 22] | Plant response rating, Soybean (soybean (Glycine max); [16]) | Plant response rating, Goosegrass [4, 16] | Plant response rating, Goosegrass [4, 17] | Plant response rating, Goosegrass [4, 18] | Plant response rating, Surinam Grass [8, 15] | Plant response rating, Cupgrass, Woolly [12, 17] | Plant response rating, Cupgrass, Woolly [12, 18] | Cupgrass, Woolly plant response rating [12, 19] | Plant response rating, Ragweed [14, 16] | Plant response rating, Ragweed [14, 17]
20: Plant response rating, Nutsedge, Yellow [7, 16] | Wheat plant response rating [11, 19]
70: Corn plant response rating (corn (Zea mays); [19]) | Plant response rating, Goosegrass [4, 20] | Bromegrass, Downy plant response rating [5, 19] | Plant response rating, Velvetleaf [6, 20] | Plant response rating, Cupgrass, Woolly [12, 15] | Plant response rating, Ragweed [14, 20]
98: Pigweed plant response rating [1, 19] | Plant response rating, Pigweed [1, 21] | Goosegrass plant response rating [4, 22] | Plant response rating, Velvetleaf [6, 21] | Ragweed plant response rating [14, 19]
5: Plant response rating, Blackgrass [2, 18] | Blackgrass plant response rating [2, 19] | Plant response rating, Johnsongrass [3, 20] | Plant response rating, Surinam Grass [8, 21] | Plant response rating, Ryegrass, Italian [10, 17] | Plant response rating, Ryegrass, Italian [10, 18] | Plant response rating, Cupgrass, Woolly [12, 21] | Plant response rating, Crabgrass, Large [13, 20]
85: Plant response rating, Soybean (soybean (Glycine max); [15]) | Plant response rating, Soybean (soybean (Glycine max); [17]) | Goosegrass plant response rating [4, 19] | Plant response rating, Velvetleaf [6, 16] | Plant response rating, Nutsedge, Yellow [7, 15] | Plant response rating, Lambsquarters [9, 16] | Plant response rating, Lambsquarters [9, 17] | Plant response rating, Lambsquarters [9, 18] | Lambsquarters plant response rating [9, 19] | Plant response rating, Kochia (kochia (Kochia scoparia); 31 g ai/ha, scale 0 to 100 (0 no effect, 100 complete control)) | Plant response rating, Crabgrass, Large [13, 18] | Crabgrass, Large plant response rating [13, 19] | Plant response rating, Ragweed [14, 18]
10: Plant response rating, Corn (corn (Zea mays); [15]) | Plant response rating, Corn (corn (Zea mays); [16]) | Plant response rating, Bromegrass, Downy [5, 16]
25: Plant response rating, Soybean (soybean (Glycine max); [20])
55: Surinam Grass plant response rating [8, 19] | Plant response rating, Crabgrass, Large [13, 17]
90: Plant response rating, Pigweed [1, 20] | Plant response rating, Soybean (soybean (Glycine max); [18]) | Soybean plant response rating (soybean (Glycine max); [19]) | Plant response rating, Velvetleaf [6, 17] | Plant response rating, Velvetleaf [6, 18] | Plant response rating, Ragweed [14, 15] | Plant response rating, Ragweed [14, 21] | Ragweed plant response rating [14, 22]
